The source of these data is patent US20250268913A1, “PKC INHIBITORS FOR THE TREATMENT OF SEPTIC CHOLESTASIS WITH CTM TARGETING” (SMARTDYELIVERY GMBH, priority 2018, published 2025).

Structures are written as SMILES.

The subject of one data set is PCI model, C57/BL6 mice. As to the kind of experiment: Survival rate in cholestasis model under septic conditions, peritoneal contamination and infection (PCI). Type of data set: in vivo. Conditions: free drug alone, 4 mg/kg body weight. As to the method:
In order to mimic the septic cholestasis, a systemic inflammation was induced using the well-established peritoneal contamination and infection (PCI) model. In this model, a human feces suspension is applied intraperitoneally (i.p.) and rapidly triggers sepsis with liver dysfunction. For each batch of human stool, the dose is titrated carefully for a survival between 0% and 20% within two weeks.
To find the adequate dose of stool, different doses were tested. 6 h after i.p. application of the stool, 8-12 weeks old C57/BL6 mice or FVB/N mice were treated with the nanoparticles or the free drug respectively.
A systemic infection/sepsis with organ failure was induced in male C57/BL6 mice by using the PCI model. For this purpose, a human fecal suspension (2.5 μl/g BW for stool batch1 and 6 μl/g for stool batch 2, respectively) was injected intraperitoneally (without anesthesia) with weight adaptation, thus triggering peritonitis with subsequent systemic infection. […] The animals were closely monitored and scored every 6 hours for signs of infection in order to timely. […] With the evaluated dose of 6 μl/g BW stool and additional antibiotic therapy, all mice died within three days, as shown in the Kaplan-Meier-Schätzer diagram (FIG. 14, right panel). […]

For data set [1] the following is noted: cited from earlier work.
For data set [2] the following is noted: compared to placebo; cited from earlier work.

In the case of `CN(C)CCCn1cc(C2=C(c3c[nH]c4ccccc34)C(=O)NC2=O)c2ccccc21` [BIM-1], the “activity of free drug (survival)” value in the data set on PCI model, C57/BL6 mice is recorded as “active”.
Regarding `CO[C@@H]1[C@H](N(C)C(=O)c2ccccc2)C[C@H]2O[C@]1(C)n1c3ccccc3c3c4c(c5c6ccccc6n2c5c31)C(=O)NC4` [midostaurin], in data set [1] (most common serious adverse reactions), the “Serious adverse reactions due to infections and gastrointestinal disorders” value was at least 20%. Further, the “on-treatment deaths from disease progression attributed to infection” value in data set [1] (number of deaths) is 4. Besides, the “adverse reaction sepsis occurring in patients” value in data set [1] (page 8 of the professional information) is given as ≥ 9 % of patients. Besides, in data set [1] (patients), the “Grade ≥3 adverse reactions reported (fatigue, sepsis, gastrointestinal hemorrhage, pneumonia, diarrhea, febrile neutropenia)” value was at least 5%; the Serious adverse reactions is recorded as 68 % of patients; the “Treatment discontinuation due to adverse reaction” value is listed as 21 % of patients.
As for `O=C1NC(=O)/C(=C\c2ccc3nccnc3c2)S1` [AS605240], the “activity of free drug (survival)” value with PCI model, C57/BL6 mice is given as “active”.
`CC[C@H](Nc1ncnc2[nH]cnc12)c1nc2cccc(F)c2c(=O)n1-c1ccccc1` [idelalisib]: the “risk of developing sepsis as adverse effect” value in data set [2] is “five-fold higher”.
